Measured values published in publication PMC8686763, “Pre-Steady-State Kinetics of the SARS-CoV-2 Main Protease as a Powerful Tool for Antiviral Drug Discovery” (Frontiers in Pharmacology, 2021).
Like-named read-outs stand apart in the source and are kept apart here.

What was measured:
SARS-CoV-2 M^pro (WT) = SARS-CoV-2 M^pro (WT) (Severe acute respiratory syndrome coronavirus 2, UniProt P0DTD1); assay: biochemical; type: binding; details: for ΔTm at 50 µM: read-out: ΔTm
WT M^pro = WT M^pro (Severe acute respiratory syndrome coronavirus 2, UniProt P0DTD1); type: binding
[1] = 5 μM M^pro, 50 μM inhibitor, vs DMSO control

Row | Structure (SMILES) | Tm (SARS-CoV-2 M^pro (WT)) | change of protein Tm upon binding (in words) (SARS-CoV-2 M^pro (WT)) | ΔTm at 50 µM (SARS-CoV-2 M^pro (WT); [1]) | K 2 (= k 2/k −2) (WT M^pro) | k 2 (WT M^pro) | k -2 (WT M^pro) | k chem (WT M^pro) | k 1 (WT M^pro; 25 °C) | k -1 (WT M^pro; 25 °C) | ΔTm at 50 µM (SARS-CoV-2 M^pro (WT)) | Tm (SARS-CoV-2 M^pro (WT); 5 μM M^pro, 50 μM inhibitor, DMSO control 56.25)
1 | CC(C)(C)NC(=O)N[C@H](C(=O)N1C[C@H]2[C@@H]([C@H]1C(=O)NC(CC1CCC1)C(=O)C(N)=O)C2(C)C)C(C)(C)C (stereo partly drawn) [Boceprevir] | 62.00 °C | caused changes of protein Tm | 5.75 °C | – | – | – | – | – | – | – | –
2 | COc1cccc2[nH]c(C(=O)N[C@@H](CC(C)C)C(=O)N[C@@H](C[C@@H]3CCNC3=O)C(=O)CO)cc12 [PF-00835231] | 70.25 °C | caused changes of protein Tm | – | 0.37 ± 0.07 | 0.90 ± 0.18 s⁻¹ | 2.4 ± 0.1 s⁻¹ | 0.17 ± 0.07 s⁻¹ | (0.35 ± 0.09)×10^6 M^−1×s^−1 | 12.4 ± 0.6 s⁻¹ | ~14 °C | –
3 | CCC[C@H](NC(=O)[C@@H]1[C@H]2CCC[C@H]2CN1C(=O)[C@@H](NC(=O)[C@@H](NC(=O)c1cnccn1)C1CCCCC1)C(C)(C)C)C(=O)C(=O)NC1CC1 [Telaprevir] | – | did not result in Tm changes | 0 °C | – | – | – | – | – | – | – | 56.25 °C
